# Laboratory results from publication PMC7385626 (Scientific Reports, 2020).
# Assays:
# B. cereus DSM 4312 = assay: Serial microdilution assay (MIC); format: cell-based, Bacillus Cereus
# Experimental: (§1) […]. […] Four types of gram-positive bacterial strains (St. pyogenez, B. subtilis, B. cereus, S. aureus) and five types of the gram-negative (S. enteridis, E. aerogenes, P. aeruginosa, E. coli, and S. gallinarum) were sensitive to 4 and 1. […]. The minimal inhibitory concentration value was studied for the microorganism cells, which evaluated to sensitive the substances and they tested in the disc-diffusion method. Inoculate of microorganism was prepared utilizing 12 h suspensions and broth cultures were adjusted to 0.5 McFarland turbidity standard. Each substance was dissolved in 10% dimethyl sulfoxide which diluted to the highest concentration (1000 µg/mL) for testing. […]. Also, prepared suspensions for standard microorganisms were added to each dilution in a 1:1 ratio. Growth act of microorganism cells was determined visually after incubation at 36 °C. The minimum concentration was no visible growth which was taken as the MIC.
# [1] = test system: bacterial strains (four gram-positive, five gram-negative); assay: Serial microdilution assay (MIC), range over the bacterial strains; format: cell-based
# Experimental: as §1
# E. aerogenes ATCC2924 = assay: Serial microdilution assay (MIC); format: cell-based, Enterobacter Aerogenes
# Experimental: as §1
# B. subtilis ATCC6633 = assay: Serial microdilution assay (MIC); format: cell-based, Bacillus Subtilis
# Experimental: as §1
# St. pyogenez ATCC176 = assay: Serial microdilution assay (MIC); format: cell-based, Steptococcus Pyogerez
# Experimental: as §1
# S. enteridis ATCC13076 = assay: Serial microdilution assay (MIC); format: cell-based, Salmonella Enteritidis
# Experimental: as §1
# E. coli 111 = assay: Serial microdilution assay (MIC); format: cell-based, Escherichia coli
# Experimental: as §1
# P. aeruginosa ATCC9027 = assay: Serial microdilution assay (MIC); format: cell-based, Pseudomonas Aureginosa
# Experimental: as §1
# S. gallinarum = assay: Serial microdilution assay (MIC); format: cell-based, Salmonella Gallinarum
# Experimental: as §1
# S. aureus ATCC29213 = assay: Serial microdilution assay (MIC); format: cell-based, Staphylococcus aureus
# Experimental: as §1
substance,measurement,setting,value
[Cd(N-bishydeten)]4[Ag(CN)2]8[Ag(CN)]2 [Complex 4],"Minimum-inhibitory concentrations (MIC), B. cereus DSM 4312",B. cereus DSM 4312,62.50 ± 18.04 µg/mL
same,"MIC, joint range for 4 and 1 over the strains",[1],15.62 to 125 µg/mL
same,"MIC, range over the bacterial strains",[1],31.25 to 125 µg/mL
same,"Minimum-inhibitory concentrations (MIC), E. aerogenes ATCC2924",E. aerogenes ATCC2924,125 ± 53.40 µg/mL
same,"Minimum-inhibitory concentrations (MIC), B. subtilis ATCC6633",B. subtilis ATCC6633,31.25 ± 0.0 µg/mL
same,"Minimum-inhibitory concentrations (MIC), St. pyogenez ATCC176",St. pyogenez ATCC176,31.25 ± 9.02 µg/mL
same,"Minimum-inhibitory concentrations (MIC), S. enteridis ATCC13076",S. enteridis ATCC13076,62.50 ± 0.14 µg/mL
same,"Minimum-inhibitory concentrations (MIC), E. coli 111",E. coli 111,31.25 ± 0.0 µg/mL
same,"Minimum-inhibitory concentrations (MIC), P. aeruginosa ATCC9027",P. aeruginosa ATCC9027,62.50 ± 0.0 µg/mL
same,"Minimum-inhibitory concentrations (MIC), S. gallinarum",S. gallinarum,125 ± 0.0 µg/mL
same,"Minimum-inhibitory concentrations (MIC), S. aureus ATCC29213",S. aureus ATCC29213,62.50 ± 0.0 µg/mL
